Experiments:
PP1B = target: T1, PP1B (Homo sapiens, UniProt P62140); experiment: Phosphatase assay PP1B (DiFMUP fluorescence); format: biochemical; conditions: for IC50: Table 2B, read-out: Compound IC50 (M) PP1B
T1 construct: purchased Recation Biology Inc

PP1A = target: T2, PP1A (Homo sapiens, UniProt P62136); experiment: Phosphatase assay PP1A (DiFMUP fluorescence); format: biochemical; conditions: for IC50: Table 2B, read-out: Compound IC50 (M) PP1A
T2 construct: purchased Recation Biology Inc
T2 sequence (P62136 whole entry): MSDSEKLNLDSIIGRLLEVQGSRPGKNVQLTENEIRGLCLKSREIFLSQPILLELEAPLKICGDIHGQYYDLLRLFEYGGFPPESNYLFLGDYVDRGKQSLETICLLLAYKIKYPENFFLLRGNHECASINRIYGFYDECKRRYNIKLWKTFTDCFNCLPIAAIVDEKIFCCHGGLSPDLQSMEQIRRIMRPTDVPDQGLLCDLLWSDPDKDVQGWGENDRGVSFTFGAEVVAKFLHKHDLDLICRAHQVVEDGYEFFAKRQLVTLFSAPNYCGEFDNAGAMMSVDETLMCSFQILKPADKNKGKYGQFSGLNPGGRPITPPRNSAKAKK

PTPN6/SHP1 = target: T3, PTPN6/SHP1 (Homo sapiens, UniProt P29350); experiment: Phosphatase assay PTPN6/SHP1; format: biochemical; conditions: for IC50: Table 2B, read-out: Compound IC50 (M) PTPN6/SHP1
T3 construct: purchased Recation Biology Inc
T3 sequence (P29350 whole entry): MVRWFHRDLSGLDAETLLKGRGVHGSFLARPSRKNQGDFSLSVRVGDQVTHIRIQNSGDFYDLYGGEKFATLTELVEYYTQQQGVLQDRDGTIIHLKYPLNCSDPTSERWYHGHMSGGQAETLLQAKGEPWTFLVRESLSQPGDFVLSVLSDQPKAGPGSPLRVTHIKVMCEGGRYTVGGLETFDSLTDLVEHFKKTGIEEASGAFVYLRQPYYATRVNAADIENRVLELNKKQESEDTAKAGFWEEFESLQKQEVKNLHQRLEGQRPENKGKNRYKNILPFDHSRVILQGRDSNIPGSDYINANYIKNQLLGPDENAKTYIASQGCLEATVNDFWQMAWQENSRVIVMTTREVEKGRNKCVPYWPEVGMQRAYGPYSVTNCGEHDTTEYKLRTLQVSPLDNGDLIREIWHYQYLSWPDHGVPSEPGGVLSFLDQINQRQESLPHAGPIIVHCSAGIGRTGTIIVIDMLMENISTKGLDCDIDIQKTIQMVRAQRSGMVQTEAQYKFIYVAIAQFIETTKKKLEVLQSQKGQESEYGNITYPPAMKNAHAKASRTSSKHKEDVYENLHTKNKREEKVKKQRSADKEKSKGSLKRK

PTPRC/CD45 = target: T4, PTPRC/CD45 (Homo sapiens, UniProt P08575); experiment: Phosphatase assay PTPRC/CD45; format: biochemical
T4 construct: purchased Recation Biology Inc
T4 sequence (P08575 26-1306): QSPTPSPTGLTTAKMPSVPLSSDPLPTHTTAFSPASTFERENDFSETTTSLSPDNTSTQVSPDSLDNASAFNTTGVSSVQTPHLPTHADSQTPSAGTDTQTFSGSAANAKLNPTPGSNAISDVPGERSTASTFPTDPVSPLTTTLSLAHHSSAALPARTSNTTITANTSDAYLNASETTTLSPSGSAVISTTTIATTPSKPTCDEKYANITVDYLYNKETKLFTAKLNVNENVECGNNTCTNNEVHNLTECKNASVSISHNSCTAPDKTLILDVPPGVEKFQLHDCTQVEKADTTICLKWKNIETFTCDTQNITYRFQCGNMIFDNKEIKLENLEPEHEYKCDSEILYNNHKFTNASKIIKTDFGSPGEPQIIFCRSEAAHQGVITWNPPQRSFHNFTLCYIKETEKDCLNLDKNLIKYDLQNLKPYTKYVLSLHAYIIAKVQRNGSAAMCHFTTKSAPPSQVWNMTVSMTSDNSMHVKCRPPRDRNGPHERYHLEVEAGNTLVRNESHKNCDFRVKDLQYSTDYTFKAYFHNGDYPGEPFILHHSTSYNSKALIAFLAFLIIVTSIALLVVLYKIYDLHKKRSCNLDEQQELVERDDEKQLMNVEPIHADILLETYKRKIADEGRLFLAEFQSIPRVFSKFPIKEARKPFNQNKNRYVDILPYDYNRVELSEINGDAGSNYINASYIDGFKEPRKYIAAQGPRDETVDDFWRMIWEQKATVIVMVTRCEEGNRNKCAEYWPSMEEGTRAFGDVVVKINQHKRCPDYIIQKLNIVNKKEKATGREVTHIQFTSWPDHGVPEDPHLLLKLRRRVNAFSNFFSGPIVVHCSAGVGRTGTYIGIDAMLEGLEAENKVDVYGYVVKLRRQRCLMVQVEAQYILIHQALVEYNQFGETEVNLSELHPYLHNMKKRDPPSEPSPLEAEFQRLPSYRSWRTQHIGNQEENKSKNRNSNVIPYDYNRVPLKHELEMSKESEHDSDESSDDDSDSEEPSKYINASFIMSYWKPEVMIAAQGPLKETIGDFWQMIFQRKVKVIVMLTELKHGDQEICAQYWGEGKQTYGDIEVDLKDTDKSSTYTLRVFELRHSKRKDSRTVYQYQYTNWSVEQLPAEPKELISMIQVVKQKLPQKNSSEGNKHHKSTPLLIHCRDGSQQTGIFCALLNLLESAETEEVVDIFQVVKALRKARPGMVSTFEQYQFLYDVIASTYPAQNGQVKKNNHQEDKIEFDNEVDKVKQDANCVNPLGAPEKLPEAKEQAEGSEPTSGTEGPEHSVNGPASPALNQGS

PTPN2/TC-PTP = target: T5, PTPN2/TC-PTP (Homo sapiens, UniProt P17706); experiment: Phosphatase assay PTPN2/TC-PTP; format: biochemical; conditions: for IC50: Table 2C, read-out: Compound IC50 (M) PTPN2/TC-PTP
T5 construct: purchased Recation Biology Inc
T5 sequence (P17706 1-415): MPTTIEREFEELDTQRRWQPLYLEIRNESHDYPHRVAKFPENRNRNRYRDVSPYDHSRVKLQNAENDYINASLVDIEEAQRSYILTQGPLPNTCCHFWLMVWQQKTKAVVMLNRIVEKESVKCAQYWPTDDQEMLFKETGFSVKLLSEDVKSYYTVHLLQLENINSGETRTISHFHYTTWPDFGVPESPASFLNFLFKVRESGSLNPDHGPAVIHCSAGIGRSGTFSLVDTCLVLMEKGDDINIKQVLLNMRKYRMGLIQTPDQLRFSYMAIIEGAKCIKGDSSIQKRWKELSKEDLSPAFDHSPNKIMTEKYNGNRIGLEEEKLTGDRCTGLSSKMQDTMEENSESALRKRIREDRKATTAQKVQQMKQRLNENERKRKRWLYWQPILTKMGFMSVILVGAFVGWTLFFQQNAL

[1] = Weight loss in male Swiss Webster mice, i.p. dosing; format: in vivo; conditions: male Swiss Webster mice about 50 g, i.p. 10 mg/kg every other day; for loss of starting body weight: by 27 days
Source text: Food was provided ad lib.

[2] = Weight gain in growing male mice; format: in vivo; conditions: growing male mice about 25 g, similar dosing regimen
Experimental: In a second experiment, growing male mice, about 25 grams, were administered either compound following a similar dosing regimen. As in the previous experiment, both compounds affected weight gain.

PTPN11/SHP2-FL (E76K) = target: T6, PTPN11/SHP2-FL (E76K) (Homo sapiens, UniProt Q06124, E76K); experiment: Phosphatase assay PTPN11/SHP2-FL (E76K)
T6 sequence (Q06124 2-597 isoform Q06124-1 E76K): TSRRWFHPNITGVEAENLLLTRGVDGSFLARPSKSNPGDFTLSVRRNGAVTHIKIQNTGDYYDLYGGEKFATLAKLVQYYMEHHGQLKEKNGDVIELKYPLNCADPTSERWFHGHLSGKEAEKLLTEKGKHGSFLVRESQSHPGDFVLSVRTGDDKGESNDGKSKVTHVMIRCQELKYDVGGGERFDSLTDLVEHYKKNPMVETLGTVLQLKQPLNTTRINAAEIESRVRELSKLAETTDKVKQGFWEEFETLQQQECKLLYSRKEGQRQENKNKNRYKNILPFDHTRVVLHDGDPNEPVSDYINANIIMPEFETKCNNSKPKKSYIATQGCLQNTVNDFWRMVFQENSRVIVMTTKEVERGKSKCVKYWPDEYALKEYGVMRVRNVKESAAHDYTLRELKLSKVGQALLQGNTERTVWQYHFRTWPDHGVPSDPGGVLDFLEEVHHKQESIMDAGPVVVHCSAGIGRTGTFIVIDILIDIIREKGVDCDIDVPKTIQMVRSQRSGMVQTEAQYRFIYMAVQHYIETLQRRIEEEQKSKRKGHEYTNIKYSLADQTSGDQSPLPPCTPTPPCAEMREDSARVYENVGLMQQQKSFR

T1 sequence (P62140 whole entry): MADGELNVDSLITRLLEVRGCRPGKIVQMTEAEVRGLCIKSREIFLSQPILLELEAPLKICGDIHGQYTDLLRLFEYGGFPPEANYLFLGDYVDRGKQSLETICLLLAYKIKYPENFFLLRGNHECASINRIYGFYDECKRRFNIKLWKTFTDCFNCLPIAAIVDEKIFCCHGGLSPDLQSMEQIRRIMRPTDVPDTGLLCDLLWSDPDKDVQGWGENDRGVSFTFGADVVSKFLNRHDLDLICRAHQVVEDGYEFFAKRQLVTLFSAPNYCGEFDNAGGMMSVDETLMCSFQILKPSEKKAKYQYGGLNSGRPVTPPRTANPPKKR

| SMILES | IC50 (PP1B) [M] | IC50 (PP1A) [M] | activity at PTPN6/SHP1, in words (PTPN6/SHP1) | IC50 (PTPN6/SHP1) [M] | activity on PTPRC/CD45, in words (PTPRC/CD45) | IC50 (PTPN2/TC-PTP) [M] | effect on weight, in words [1] | nadir of weight [1] [days] | recovery to the starting weight [1] [days] | loss of starting body weight [1] | effect on growth, in words [2] | inhibition of PTPN11 (E76K), in words (PTPN11/SHP2-FL (E76K)) | activity at PP1B, in words (PP1B) | activity at PP1A, in words (PP1A) | IC50 (PTPRC/CD45; Table 2B, read-out: Compound IC50 (M) PTPRC/CD45) [M] | activity at PTPN2, in words (PTPN2/TC-PTP) |
| --- | --- | --- | --- | --- | --- | --- | --- | --- | --- | --- | --- | --- | --- | --- | --- | --- |
| CC(C)[C@@H](CC[C@@H](C)[C@H]1CC[C@H]2[C@@H]3[C@H](O)C[C@H]4C[C@@H](NCCCNCCCCNCCCN)CC[C@]4(C)[C@H]3CC[C@]12C)OS(=O)(=O)O (single isomer, unassigned) [ENT-02, trodusquemine] | > 0.0001 | > 0.0001 | Neither compound inhibits | > 0.0001 | target | > 0.0001 | more severe decline | ~16 | ~45 | about 10% | suppressed growth | potently inhibit |  |  |  |  |
| CC(CCCC(C)C1CCC2C3C(O)CC4CC(NCCCNCCCCNCCCN)CCC4(C)C3CCC12C)C(=O)O (single isomer, unassigned; ent-03) [ENT-03, 3-β-Spermino-7α-hydroxy-5α-cholestanoic acid] | > 0.0001 | > 0.0001 |  | > 0.0001 | target | > 0.0001 | weight loss | ~16 | ~45 | about 10% | continued normal growth | potently inhibit | inactive | inactive | 5.71e-07 | inactive |

— patent US12503485B2, “Human aminosterol ENT-03 compounds, related compositions comprising the same, and methods of using the same” (Enterin, Inc., priority 2019, dated 2025)
